This note sets out measurements from BindingDB's records for patent US20240109853 (Shanghai Yao Yuan Biotechnology Co., 2024).

SMILES strings stand for the structures. Several values for one entry are separate records, joined by “and”; a condition that tells them apart may be missing. Equal entries are not always repeated.

Alpha-protein kinase 1, sequence (Q96QP1 whole entry): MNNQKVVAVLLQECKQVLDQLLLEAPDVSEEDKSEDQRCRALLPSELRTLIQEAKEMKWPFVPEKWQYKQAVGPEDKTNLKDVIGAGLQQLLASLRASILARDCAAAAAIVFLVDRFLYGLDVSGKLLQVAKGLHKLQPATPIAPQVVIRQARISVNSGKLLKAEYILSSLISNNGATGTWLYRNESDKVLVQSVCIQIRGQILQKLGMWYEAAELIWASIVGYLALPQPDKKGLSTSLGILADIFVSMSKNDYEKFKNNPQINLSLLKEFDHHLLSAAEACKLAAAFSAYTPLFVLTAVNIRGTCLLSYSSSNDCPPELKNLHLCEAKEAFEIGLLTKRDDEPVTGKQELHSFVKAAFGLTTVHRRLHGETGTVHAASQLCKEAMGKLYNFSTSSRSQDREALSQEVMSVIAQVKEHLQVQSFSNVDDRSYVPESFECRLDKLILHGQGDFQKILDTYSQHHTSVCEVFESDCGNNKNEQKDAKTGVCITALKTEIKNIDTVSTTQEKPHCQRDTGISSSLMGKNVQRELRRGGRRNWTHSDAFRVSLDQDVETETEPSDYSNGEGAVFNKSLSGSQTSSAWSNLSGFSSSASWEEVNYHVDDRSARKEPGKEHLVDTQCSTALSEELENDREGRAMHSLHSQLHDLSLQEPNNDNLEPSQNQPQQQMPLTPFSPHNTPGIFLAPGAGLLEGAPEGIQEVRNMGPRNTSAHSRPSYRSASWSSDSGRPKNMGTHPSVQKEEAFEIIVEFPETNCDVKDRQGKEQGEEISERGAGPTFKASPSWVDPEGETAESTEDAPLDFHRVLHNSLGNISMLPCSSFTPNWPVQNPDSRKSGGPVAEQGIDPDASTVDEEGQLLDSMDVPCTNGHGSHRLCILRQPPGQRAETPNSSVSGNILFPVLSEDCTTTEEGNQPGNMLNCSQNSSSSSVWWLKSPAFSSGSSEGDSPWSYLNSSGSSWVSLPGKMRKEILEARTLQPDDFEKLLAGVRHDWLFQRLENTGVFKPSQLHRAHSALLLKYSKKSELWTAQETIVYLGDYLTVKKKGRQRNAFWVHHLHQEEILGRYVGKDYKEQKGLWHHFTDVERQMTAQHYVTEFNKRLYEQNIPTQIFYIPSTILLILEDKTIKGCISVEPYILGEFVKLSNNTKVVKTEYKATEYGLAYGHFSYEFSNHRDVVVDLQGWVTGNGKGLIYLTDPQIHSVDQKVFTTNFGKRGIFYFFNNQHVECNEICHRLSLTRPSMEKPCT

The target of this assay is Alpha-protein kinase 1 (Homo sapiens, UniProt Q96QP1). Put plainly: ALPK1 In Vitro Kinase Assay. The method, then:
ALPK1 kinase activity was measured in an in vitro assay using ADP-Heptose as the ALPK1 ligand and activator of its kinase activity and TIFA protein as the ALPK1 phosphorylation substrate. Since phosphorylated TIFA proteins oligomerize, Homogeneous Time-Resolved Fluorescence (HTRF) was used to measure protein: protein interaction between HA-tagged TIFA proteins as an indicator of TIFA phosphorylation. In brief, dose-response studies were performed with […] in 384-well assay plates. Each well contained 0.1 mg TIFA, ALPK1 (2 nM final concentration in reaction mixture) and kinase buffer (100 mM of HEPES pH 7.4, 4 mM DTT, 40 mM MgCl2, 20 mM of β-Glycerol phosphate disodium salt, 0.4 mM of Na3VO4, 0.16 mg/mL). Titrations of the test compounds were prepared in dimethylsulphoxide (DMSO). The reaction was initiated by addition of ATP and ADP-Heptose.
The term IC50 denotes the point on the concentration scale where inhibition reaches its midpoint. A low value points to inhibition by little substance. The compound `CC(C)(c1ccc(Br)cc1)c1csc(NC(=O)NCc2ccc(N3CCNCC3)c(Br)c2)n1` [US20240109853, Compound A097] came in with an IC50 of 87 nM. As for `COc1ccc(C(C)(C)c2csc(NC(=O)NCc3cc(F)c(C4CCNCC4)c(F)c3)n2)cc1` [US20240109853, Compound A151], the figure is 43 nM; as for `CC(C)(c1ccc(Br)cc1)c1csc(NC(=O)NCc2ccc(C3CCNCC3)c(F)c2)n1` [US20240109853, Compound A222], 56 nM; as for `C#C[C@@](C)(c1ccc(Cl)cc1)c1nc(NC(=O)NCCO)sc1Cl` [US20240109853, Compound A247], 408 nM. As for `C#C[C@](C)(c1ccc(Cl)cc1)c1nc(NC(=O)NCCO)sc1Cl` [US20240109853, Compound A248], the figure is 1290 nM. As for `C#CC(C)(c1ccc(Cl)cc1)c1csc(NC(=O)N2CC(N)C2)n1` (configuration not stated) [US20240109853, Compound A275], the figure is 503 nM and 246 nM; as for `C#CC(C)(c1ccc(Cl)cc1)c1csc(NC(=N)N)n1` (configuration not stated) [US20240109853, Compound A276], 345 nM; as for `C#C[C@@](C)(c1ccc(Cl)cc1)c1csc(NC(=O)NC(C)CO)n1` (some centres not stated) [US20240109853, Compound A312], 545 nM and 614 nM.

For the compound `C#C[C@](C)(c1ccc(Cl)cc1)c1csc(NC(=O)NC(C)CO)n1` (some centres not stated) [US20240109853, Compound A314], the IC50 is 261 nM and 81 nM. As for `C#C[C@](C)(c1ccc(Cl)cc1)c1csc(NC(=O)NCC(C)O)n1` (some centres not stated) [US20240109853, Compound A316], the IC50 was 421 nM and 534 nM. As for `C#C[C@@](C)(c1ccc(Cl)cc1)c1csc(NC(=O)NCC(C)O)n1` (some centres not stated) [US20240109853, Compound A317], the figure is 85 nM and 156 nM; as for `COc1ccc(C(C)(C)c2csc(NC(=O)c3ccc(N4CC5CC(C4)N5)cc3)n2)cc1` [US20240109853, Compound B048], 73 nM.
